Key:
Assay in all cases: relative viability (nuclei count vs DMSO), 5 days (fraction); higher = more cells survive
Kobe2602 + Lapatinib = compound: C1=CC(=CC=C1NC(=S)NNC2=C(C=C(C=C2[N+](=O)[O-])C(F)(F)F)[N+](=O)[O-])F [Kobe2602] + CS(=O)(=O)CCNCc1ccc(-c2ccc3ncnc(Nc4ccc(OCc5cccc(F)c5)c(Cl)c4)c3c2)o1 [Lapatinib] (partner 2 µM)
In short: (§1)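 Values are medians from duplicate plates. Each reflects relative viability, defined as the nuclei count of treated wells over that of vehicle wells. Lung cancer cell lines in 1536-well plates were pin-tool dosed one day after seeding with one drug alone or with a fixed anchor-drug dose plus five library-drug doses (not always all listed) in √10 steps, then fixed, stained and imaged at 4× after 5 days.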

Kobe2602 + Luminespib = compound: C1=CC(=CC=C1NC(=S)NNC2=C(C=C(C=C2[N+](=O)[O-])C(F)(F)F)[N+](=O)[O-])F [Kobe2602] + CCNC(=O)c1noc(-c2cc(C(C)C)c(O)cc2O)c1-c1ccc(CN2CCOCC2)cc1 [Luminespib] (partner 0.01 µM)
In short: as §1

Kobe2602 + AZD7762 = compound: C1=CC(=CC=C1NC(=S)NNC2=C(C=C(C=C2[N+](=O)[O-])C(F)(F)F)[N+](=O)[O-])F [Kobe2602] + NC(=O)Nc1cc(-c2cccc(F)c2)sc1C(=O)N[C@H]1CCCNC1 [AZD7762] (partner 0.2 µM)
In short: as §1

Zosuquidar + Pictilisib = compound: O[C@@H](COc1cccc2ncccc12)CN1CCN([C@@H]2c3ccccc3[C@@H]3[C@H](c4ccccc42)C3(F)F)CC1 [Zosuquidar] + CS(=O)(=O)N1CCN(Cc2cc3nc(-c4cccc5[nH]ncc45)nc(N4CCOCC4)c3s2)CC1 [Pictilisib] (partner 1 µM)
In short: as §1

Cell Line	relative viability (Kobe2602 + Lapatinib; first compound 0.2 µM)	relative viability (Kobe2602 + Lapatinib; first compound 0.6325 µM)	relative viability (Kobe2602 + Lapatinib; first compound 2 µM)	relative viability (Kobe2602 + Lapatinib; first compound 6.325 µM)	relative viability (Kobe2602 + Lapatinib; first compound 20 µM)	relative viability (Kobe2602 + Luminespib; first compound 0.2 µM)	relative viability (Kobe2602 + Luminespib; first compound 0.6325 µM)	relative viability (Kobe2602 + Luminespib; first compound 2 µM)	relative viability (Kobe2602 + Luminespib; first compound 6.325 µM)	relative viability (Kobe2602 + Luminespib; first compound 20 µM)	relative viability (Kobe2602 + AZD7762; first compound 0.2 µM)	relative viability (Kobe2602 + AZD7762; first compound 0.6325 µM)	relative viability (Kobe2602 + AZD7762; first compound 2 µM)	relative viability (Kobe2602 + AZD7762; first compound 6.325 µM)	relative viability (Kobe2602 + AZD7762; first compound 20 µM)	relative viability (Zosuquidar + Pictilisib; first compound 0.01 µM)	relative viability (Zosuquidar + Pictilisib; first compound 0.03162 µM)	relative viability (Zosuquidar + Pictilisib; first compound 0.1 µM)	relative viability (Zosuquidar + Pictilisib; first compound 0.3162 µM)	relative viability (Zosuquidar + Pictilisib; first compound 1 µM)
HCC-15	0.856	0.937	0.81	0.863	0.809	0.411	0.272	0.301	0.255	0.384	1.03	1.2	1.02	1.17	1.43	0.686	0.778	0.753	0.801	0.854
NCI-H2405	1.05	1.17	1.01	1.2	1.33	0.674	0.694	0.73	0.771	0.719	0.767	0.912	0.664	0.798	0.857	0.512	0.351	0.467	0.529	0.363
NCI-H1915	0.998	1.04	0.969	1.02	1.03	0.778	0.875	0.783	0.852	0.693	0.711	0.729	0.7	0.71	0.682	0.9	0.919	0.903	1.02	0.967
NCI-H647	1.09	0.937	0.943	0.938	1.01	0.259	0.188	0.152	0.112	0.225	0.681	0.645	0.423	0.532	0.454	0.493	0.316	0.463	0.4	0.466
NCI-H2087	0.879	1.01	1.26	0.957	1.04	0.226	0.153	0.174	0.143	0.153	1.24	1.22	1.22	1.32	1.13	0.894	0.844	0.791	1	0.853
HOP-62	1.06	1.04	0.951	0.94	1.04	0.933	0.957	0.866	0.88	0.87	0.635	0.529	0.667	0.447	0.537	0.684	0.86	0.579	0.81	0.831
NCI-H2126	0.751	0.775	0.778	0.725	0.759	0.947	0.976	0.895	0.884	0.825	1.07	1.01	1.09	1.08	0.988	0.479	0.505	0.404	0.494	0.539
NCI-H2170	0.282	0.261	0.262	0.272	0.303	0.856	0.922	0.703	0.944	0.719	0.9	0.875	0.869	0.823	0.886	0.295	0.266	0.312	0.345	0.281
H3255	0.244	0.301	0.234	0.25	0.239	0.769	0.981	0.902	0.937	0.878	0.868	0.956	0.868	0.775	0.864	0.49	0.565	0.412	0.526	0.42
EMC-BAC-2	0.89	0.935	0.904	0.904	0.909	1.16	1.16	1.13	1.31	1.14	1.14	1.16	1.06	1.21	1.16	0.511	0.524	0.47	0.635	0.508
CAL-12T	0.676	0.717	0.681	0.627	0.696	0.358	1.01	0.241	0.362	0.233	0.644	0.736	0.568	0.609	0.506	0.349	0.494	–	0.533	0.423
NCI-H838	0.905	1.14	0.96	1	0.87	0.353	0.395	0.308	0.268	0.278	0.918	1.01	0.874	0.915	0.898	0.423	0.428	0.284	0.488	0.441
NCI-H1944	0.878	0.944	0.837	0.857	0.787	0.74	0.801	0.608	0.739	0.645	0.561	0.553	0.704	0.496	0.585	0.342	0.337	0.312	0.363	0.349
NCI-H1437	0.815	0.847	0.723	0.79	0.673	1.12	1.11	1.1	1.14	0.984	1.17	1.14	1.11	1.05	1.02	0.464	0.411	0.453	0.628	0.506
RERF-LC-KJ	0.851	0.842	0.809	0.697	0.831	1.12	1.17	1.2	1.03	0.515	0.883	0.973	1.02	0.881	0.894	0.467	0.586	0.536	0.679	0.57
NCI-H1395	0.925	1.04	1.01	1.18	1.12	0.691	0.869	0.815	0.726	0.662	0.35	0.428	0.406	0.422	0.406	0.574	0.556	0.52	0.683	0.809

Source: the supplement of paper PMC10307832
